Here are results for 8 compounds from ChEMBL document CHEMBL1201862, “PubChem BioAssay data set” (2004).

Test systems include SF-268; RXF 393; A498; KM-20L2; HOP-62; SR; SN12C; SK-MEL-5; SW-620; SNB-75; MOLT-4; K562; HCT-116; HOP-92; NCI-H226; DU-145; MDA-N; BT-549; MDA-MB-435; MCF7.
What all share (assay): inhibition of tumour cell growth, NCI panel, 48 h

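Compound exposure: 48 hours, 5 concentrations, 96-well plates. The concentration for 50% growth inhibition is given as GI50.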 Activity calls are given as the source filed them. No stated cut-off is given here; in the data, active = GI50 up to about 1.1 µM and inactive = higher.

`COc1ccc(C(c2ccc(C(C)C)cc(OC)c2=O)c2ccc(C(C)C)cc(OC)c2=O)cc1`: the GI50 in the assay on SF-268 was 13.6 µM (inactive); with RXF 393, 4.15 µM (inactive); with A498 it was 17.7 µM (inactive); with KM-20L2, 14.1 µM (inactive); with HOP-62, 21 µM (inactive); with SR, 10400 nM (inactive). The GI50 with SN12C is 16.1 µM (inactive); in the assay with SK-MEL-5 it was 14.3 µM (inactive); with SW-620 it was 15.5 µM (inactive); in the assay on SNB-75, 19.6 µM (inactive); in the assay with MOLT-4, 7.53 µM (inactive); in the assay with K562, 10.7 µM (inactive). Further, the values for the GI50 in the assay with HCT-116, in the assay on HOP-92 and in the assay on NCI-H226 were 11.1 µM (inactive), 13.6 µM (inactive) and 18.1 µM (inactive), respectively.
For the compound `C[C@]12CC[C@H](OCCC#N)CC1=CC[C@@H]1C2CC[C@]2(C)/C(=N/OCCC#N)CCC12` (stereo not given in full), the GI50 with SF-268 is > 100 µM (inactive); with RXF 393, 25.4 µM (inactive); in the assay with A498 it was > 100 µM (inactive); in the assay with KM-20L2, > 100 µM (inactive); in the assay with HOP-62 it was > 69.2 µM (inactive); with SR, 4430 nM (inactive). The GI50 with SN12C is > 100 µM (inactive); with SK-MEL-5, > 21 µM (inactive); with SW-620 it was > 100 µM (inactive); with SNB-75 it was 28.1 µM (inactive); with MOLT-4, > 100 µM (inactive); in the assay on K562 it was > 22.4 µM (inactive). For the same compound, the results for the GI50 in the assay on HCT-116, in the assay on HOP-92 and with NCI-H226 were > 21 µM (inactive), 14.3 µM (inactive) and > 100 µM (inactive), respectively.
On to `COc1ccc(-c2oc3cc(O)c(OC)c(O)c3c(=O)c2O)cc1` [BETULETOL], for which the GI50 in the assay on SF-268 is 8.61 µM (inactive); with RXF 393, 12 µM (inactive); in the assay on A498 it was 7.11 µM (inactive); with KM-20L2 it was 39.7 µM (inactive); in the assay with HOP-62 it was 4.73 µM (inactive); in the assay with SR, 3080 nM (inactive). Further, the GI50 with SN12C was 5.6 µM (inactive); in the assay with DU-145 it was 2360 nM (inactive); with MDA-N, 13700 nM (inactive); in the assay on SK-MEL-5, 6.14 µM (inactive); in the assay with SW-620, 20.5 µM (inactive); with SNB-75 it was 10.4 µM (inactive). Moreover, the GI50 with MOLT-4 was 1.85 µM (inactive); in the assay on BT-549, 8.36 µM (inactive); in the assay with MDA-MB-435, 17900 nM (inactive); in the assay with K562, 10.9 µM (inactive); in the assay with HCT-116, 8.75 µM (inactive); in the assay with HOP-92, 6.7 µM (inactive). Besides, the results for the GI50 in the assay on NCI-H226 and in the assay with MCF7 were 5.19 µM (inactive) and 4440 nM (inactive), respectively.
In the case of `COc1ccc2c(c1)c(=O)c1c(NCCN(C)C)ccc3nnn2c31`, the GI50 in the assay on SF-268 is 2.13 µM (inactive); with RXF 393, 0.0272 µM (active); in the assay on A498 it was 9.51 µM (inactive); in the assay on KM-20L2 it was 1.15 µM (inactive); in the assay on HOP-62 it was 2.82 µM (inactive); in the assay on SR, 493 nM (active). Besides, the GI50 is 2.49 µM (inactive) in the assay on SN12C; 3.17 µM (inactive) with SK-MEL-5; 0.7 µM (active) in the assay with SW-620; 7.1 µM (inactive) in the assay on SNB-75; 0.321 µM (active) in the assay with MOLT-4; 1.6 µM (inactive) in the assay with K562. Besides, the GI50 in the assay on HCT-116 was 0.655 µM (active); in the assay with HOP-92, 2.19 µM (inactive); in the assay on NCI-H226, 2.46 µM (inactive).
Regarding `Nc1ccn([C@@H]2C=C(CO)[C@@H](O)[C@H]2O)c(=O)n1`, the GI50 in the assay on SF-268 was 0.269 µM (active); in the assay with RXF 393, 0.53 µM (active); in the assay with A498 it was 1.84 µM (inactive); with KM-20L2, 0.0912 µM (active); with HOP-62, 0.102 µM (active); with SR it was 9.46 nM (active). Moreover, the GI50 with SN12C was 0.0546 µM (active); with DU-145, 26.1 nM (active); in the assay with MDA-N, 35.3 nM (active); in the assay on SK-MEL-5, 1.06 µM (active); in the assay on SW-620 it was 0.0849 µM (active); in the assay with SNB-75, 2.07 µM (inactive). Further, the GI50 in the assay on MOLT-4 is 0.0501 µM (active); with BT-549 it was 2.06 µM (inactive); in the assay with MDA-MB-435, 50 nM (active); in the assay with K562 it was 0.0681 µM (active); with HCT-116, 0.05 µM (active); in the assay with HOP-92, 0.224 µM (active). Also, the GI50 was 5.53 µM (inactive) in the assay with NCI-H226 and 50 nM (active) in the assay on MCF7.
In the case of `CN(C)CCNC(=O)c1cccc2cc3ccc4ccccc4c3nc12`, the GI50 was 0.0953 µM (active) in the assay on SF-268; 0.111 µM (active) in the assay on RXF 393; < 0.01 µM (active) with A498; 0.136 µM (active) with KM-20L2; 0.0957 µM (active) in the assay with HOP-62; 24.6 nM (active) in the assay on SR. The GI50 in the assay with SN12C is 0.0531 µM (active); in the assay with SK-MEL-5 it was 0.137 µM (active); in the assay on SW-620, 0.0306 µM (active); with SNB-75, 0.131 µM (active); in the assay with MOLT-4 it was 0.0156 µM (active); with K562, 0.0653 µM (active). Besides, the results for the GI50 with HCT-116, in the assay on HOP-92 and with NCI-H226 were 0.0294 µM (active), 0.143 µM (active) and 0.112 µM (active), respectively.
`C=CCC1(CN(C)C)CC/C(=C\c2ccc(Cl)cc2)C1=O` (stereo not given): the GI50 in the assay with SF-268 was 37.8 µM (inactive); with RXF 393, 31 µM (inactive); in the assay on A498, 37.2 µM (inactive); in the assay on KM-20L2 it was 22.8 µM (inactive); in the assay on HOP-62, > 100 µM (inactive); in the assay with SR, 97.3 nM (active). Further, the GI50 was 70.1 µM (inactive) with SN12C; 28.8 µM (inactive) in the assay with SK-MEL-5; 26.9 µM (inactive) in the assay with SW-620; 33 µM (inactive) with SNB-75; 17.9 µM (inactive) in the assay with MOLT-4; 26.9 µM (inactive) in the assay on K562. The GI50 was 19.9 µM (inactive) in the assay with HCT-116, 66.8 µM (inactive) in the assay with HOP-92 and 96.8 µM (inactive) in the assay on NCI-H226.
On to `CC[C@@]1(OC(=O)C(N)CCCCN)C(=O)OCc2c1cc1n(c2=O)Cc2cc3ccccc3nc2-1` (stereo not given in full), for which the GI50 with SF-268 is 0.0169 µM (active); with RXF 393, 0.122 µM (active); with A498 it was 0.0802 µM (active); with KM-20L2, 0.166 µM (active); in the assay on HOP-62, < 0.0148 µM (active); in the assay with SR, < 10 nM (active). Also, the GI50 was < 0.0149 µM (active) in the assay with SN12C; < 19.9 nM (active) in the assay on DU-145; 167 nM (active) in the assay on MDA-N; 0.0377 µM (active) in the assay with SK-MEL-5; 0.04 µM (active) in the assay with SW-620; 0.0336 µM (active) in the assay on SNB-75. The GI50 in the assay on MOLT-4 is < 0.01 µM (active); in the assay on BT-549, 0.218 µM (active); with MDA-MB-435, 293 nM (active); in the assay with K562, 0.103 µM (active); in the assay on HCT-116, 0.0415 µM (active); in the assay on HOP-92 it was 0.179 µM (active). For the same compound, the GI50 in the assay on NCI-H226 was 0.111 µM (active); in the assay on MCF7, 21 nM (active).
